# System: not listed separately
# Assay: Selectivity index, ratio of CC50 for cytotoxicity against human HuH7 cells to EC50 for antiviral activity against H/PF/2013 Zika virus infected in human HuH7 cells
# Format: toxicity, cell-based
# Settings: HuH7 cells, read-out: Ratio CC50/EC50; call rule not given here
row,SMILES,selectivity ratio
1,Cn1c2ccc(Br)cc2c2cc(-c3cccc(C(=N)N)c3)ccc21,5.42
2,N=C(N)c1cccc(S(=O)(=O)n2c3ccc(Br)cc3c3cc(Br)ccc32)c1,4.14

# Target: T1, Nonstructural protein 3 (Zika virus, UniProt A0A024AXB9)
# Assay: Inhibition of N-terminal linked Zika virus NS2B (45 to 96 residues) - NS3 (1 to 177 residues) protease domain expressed in Escherichia coli Bl21(DE3) using Bz-nKRR-AMC as substrate preincubated for 15 mins followed by substrate addition and measured by fluorescence based assay
# Settings: not given
# T1 sequence (A0A024AXB9 whole entry, the tested form may be a part): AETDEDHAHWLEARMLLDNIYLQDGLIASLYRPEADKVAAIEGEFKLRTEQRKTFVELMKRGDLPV
row,SMILES,IC50
1,N=C(N)c1cccc(NC(=O)Nc2cccc(C(=N)N)c2)c1 [AMICARBALIDE],47.6 µM
2,N=C(N)c1cccc(-c2cccc(-c3cccc(C(=N)N)c3)c2)c1,104 µM
3,N=C(N)c1cccc(-c2ccc3ccc(-c4cccc(C(=N)N)c4)cc3c2)c1,49.5 µM

# Target: T1, Nonstructural protein 3
# Assay: Inhibition of N-terminal His6-tagged Zika virus NS2B (45 to 96 residues) - NS3 (1 to 177 residues) protease domain expressed in Escherichia coli Bl21(DE3) using Bz-nKRR-AMC as substrate preincubated for 30 mins in presence of bZipro and measured for 60 sec over 10 mins by fluorescence based assay
# Settings: not given
row,SMILES,IC50
1,COc1ccc(S(=O)(=O)n2nc(OC(=O)c3cccc(-c4ccccc4Cl)c3)cc2N)cc1,0.1 µM

# System: not listed separately
# Assay: Cytotoxicity against human HuH7 cells assessed as reduction in cell viability incubated for 48 hrs by cellTiter-Glo assay
# Format: cell-based, Huh-7
# Settings: not given
row,SMILES,CC50 at 48 h
1,N#Cc1cccc(-c2ccc3c(c2)c2cc(-c4cccc(C#N)c4)ccc2n3Cc2cccc(C(=N)N)c2)c1,7.48 µM
2,Cn1c2ccc(-c3cccc(C#N)c3)cc2c2cc(-c3cccc(C(=N)N)c3)ccc21,6.25 µM
3,Cn1c2ccc(Br)cc2c2cc(-c3cccc(C(=N)N)c3)ccc21,6.57 µM
4,N=C(N)c1cccc(S(=O)(=O)n2c3ccc(Br)cc3c3cc(Br)ccc32)c1,6.58 µM
5,N#Cc1cccc(-c2ccc3c(c2)c2cc(-c4cccc(C#N)c4)ccc2n3S(=O)(=O)c2cccc(C(=N)N)c2)c1,3.35 µM

# System: Zika virus
# Assay: Antiviral activity against Zika virus
# Format: functional, organism-based
# Settings: not given
row,SMILES,EC50
1,CO[C@@H]1[C@@H](OC(N)=O)[C@@H](O)[C@H](Oc2ccc3c(O)c(NC(=O)c4ccc(O)c(CC=C(C)C)c4)c(=O)oc3c2C)OC1(C)C [NOVOBIOCIN],62.2 µM

# System: Zika virus
# Assay: Antiviral activity against Zika virus H/PF/2013 infected in human HuH7 cells assessed as reduction in viral titer incubated for 24 hrs by plague assay
# Format: functional, organism-based
# Settings: not given
row,SMILES,EC50
1,N#Cc1cccc(-c2ccc3c(c2)c2cc(-c4cccc(C#N)c4)ccc2n3Cc2cccc(C(=N)N)c2)c1,Not Active
2,Cn1c2ccc(-c3cccc(C#N)c3)cc2c2cc(-c3cccc(C(=N)N)c3)ccc21,Not Active
3,N#Cc1cccc(-c2ccc3c(c2)c2cc(-c4cccc(C#N)c4)ccc2n3S(=O)(=O)c2cccc(C(=N)N)c2)c1,Not Active

# Same assay, conditions: Zika virus, H/PF/2013, Huh-7, 24 h; read-out: EC50
row,SMILES,EC50
1,N=C(N)c1cccc(-c2ccc3ccc(-c4cccc(C(=N)N)c4)cc3c2)c1,4.95 µM
2,Cn1c2ccc(Br)cc2c2cc(-c3cccc(C(=N)N)c3)ccc21,1.35 µM
3,N=C(N)c1cccc(S(=O)(=O)n2c3ccc(Br)cc3c3cc(Br)ccc32)c1,3.26 µM

# Target: T1, Nonstructural protein 3
# Assay: Inhibition of N-terminal unlinked Zika virus NS2B (45 to 96 residues) - NS3 (1 to 177 residues) protease domain expressed in Escherichia coli Bl21(DE3) using Bz-nKRR-AMC as substrate preincubated for 15 mins followed by substrate addition and measured by fluorescence based assay
# Settings: not given
row,SMILES,IC50
1,N#Cc1cccc(-c2ccc3c(c2)c2cc(-c4cccc(C#N)c4)ccc2n3Cc2cccc(C(=N)N)c2)c1,14.9 µM
2,N=C(N)c1cccc(-c2cccc(-c3cccc(C(=N)N)c3)c2)c1,38.3 µM
3,Cn1c2ccc(-c3cccc(C#N)c3)cc2c2cc(-c3cccc(C(=N)N)c3)ccc21,1.7 µM
4,N=C(N)c1cccc(-c2ccc3ccc(-c4cccc(C(=N)N)c4)cc3c2)c1,32.5 µM
5,Cn1c2ccc(Br)cc2c2cc(-c3cccc(C(=N)N)c3)ccc21,13.9 µM
6,N=C(N)c1cccc(S(=O)(=O)n2c3ccc(Br)cc3c3cc(Br)ccc32)c1,14.2 µM
7,N#Cc1cccc(-c2ccc3c(c2)c2cc(-c4cccc(C#N)c4)ccc2n3S(=O)(=O)c2cccc(C(=N)N)c2)c1,3.5 µM

# Target: T1, Nonstructural protein 3
# Assay: Inhibition of N-terminal His6-tagged Zika virus NS2B (49 to 95 residues) - NS3 (1 to 170 residues) protease domain expressed in Escherichia coli Bl21(DE3) using Bz-Nle-Lys-Lys-Arg-AMC as substrate preincubated for 10 mins followed by substrate addition measured after 10 mins by fluorescence based assay
# Settings: not given
row,SMILES,IC50
1,CC(C)C[C@H]1C(=O)N2CCC[C@H]2[C@]2(O)O[C@](NC(=O)[C@@H]3C=C4c5cccc6[nH]c(Br)c(c56)C[C@H]4N(C)C3)(C(C)C)C(=O)N12 [BROMOCRIPTINE],13 µM

# — ChEMBL document CHEMBL4406817, “Cell-active carbazole derivatives as inhibitors of the zika virus protease” (Eur J Med Chem, 2019)
